Results: publication PMC12216609, “Inhibitors of eIF1A-ribosome interaction unveil uORF-dependent regulation of translation initiation and antitumor and antiviral effects” (The EMBO Journal, 2025)
pIC50: −log10 of the molar value. Where “and” joins values, the source holds several entries; their conditions need not be identical. Identical values can stand only once. Like-named read-outs stand apart in the source and are kept apart here.

Columns and labels:
eIF1A = biological target: T1, eIF1A (Homo sapiens, UniProt P47813); type: binding; conditions: for fluorescence ratio, eIF1A: background-corrected, relative to DMSO or lowest 1Ai concentration, replicate columns; for WT eIF1A IC50: fluorescence binding
T1 construct: His-bdSUMO (cleaved yes); made in house; host or cells: E. coli BL-21
T1 sequence (P47813 whole entry): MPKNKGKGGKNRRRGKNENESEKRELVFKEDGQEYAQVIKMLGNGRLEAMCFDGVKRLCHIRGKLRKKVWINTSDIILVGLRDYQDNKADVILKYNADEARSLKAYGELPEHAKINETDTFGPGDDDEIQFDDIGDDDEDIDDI

eIF1A-RPS10 interaction = biological target: T2, eIF1A-RPS10 interaction (Homo sapiens, UniProt P46783+P47813); assay: Split-Renilla luciferase eIF1A-RPS10 interaction screen, dose-response; type: biochemical; conditions: summary table; read-out: IC50 concentration (µM), IC50 screen
T2 construct: made in house; host or cells: E. coli BL21 (PRSFduet); unpurified lysate supernatant
T2 sequence (P47813 whole entry, one chain of several): as the sequence (P47813 whole entry) above
How it was run: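 eIF1A (C-terminus fused to N-terminal Renilla fragment, N-terminal tail left free) and RPS10 fused to the C-terminal Renilla fragment were expressed in BL21 E. coli (0.5 mM IPTG, overnight at 16 °C). Clarified lysates in TKE buffer served as the source of reconstituted luciferase activity; loss of signal indicated disrupted interaction.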

NSP1 = NSP1 (Severe acute respiratory syndrome coronavirus 2, UniProt P0DTD1)
eIF1A without NTT = biological target: T3, eIF1A without NTT (Homo sapiens, UniProt P47813); assay: Fluorescence binding assay with NTT-truncated eIF1A
T3 construct: His-bdSUMO (cleaved yes); made in house; host or cells: E. coli (BL-21)
T3 sequence (P47813 31-144 limits assumed): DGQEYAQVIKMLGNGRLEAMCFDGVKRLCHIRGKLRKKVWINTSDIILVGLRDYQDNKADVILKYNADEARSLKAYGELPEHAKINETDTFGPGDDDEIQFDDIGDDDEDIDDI

[1] = tested on: uORF-bearing 5'UTR firefly reporters in HEK293T cells; assay: uORF reinitiation / leaky scanning firefly reporters; conditions: for ff/rl, 46 leaky reporter / ff/rl, 46 reporter / ff/rl, normal reporter: single replicates, not normalized to DMSO
Excerpt: (M) The reference and uORF-bearing reporters were transfected to HEK293T cells together with RL, which served to normalize translation efficiency. The reporter activities are represented as firefly vs RL; n ≥3 independent biological replicates, error bars represent SEM. *P < 0.05, **P < 0.01, Student t test. (N) Firefly Reporters (J) were transfected to HEK293T cells together with normalizing RL. […] Results are represented as firefly vs. RL normalized to DMSO in each biological replicate; n = 4, error bars represent SEM. *P < 0.05, **P < 0.01, Student t test.
In the first and second, we inserted an out-of-frame uAUG 46 or 95 nucleotides before the main ORF, respectively, followed by a downstream stop codon generating an uORF of 10 amino acids. In these constructs, the translation from the main ORF could be either by reinitiation or leaky scanning. In the third construct, this out of frame uAUG lacks a stop codon, causing initiation from the main ORF to exclusively occur via leaky scanning (Fig. 4L). These reporters were transfected into HEK293T cells together with RL luciferase reporter for normalizing transfection efficiency. […] We next examined these reporters in the presence of 1Ais.

[2] = summary table, fluorescence binding assay

SMILES: O=C(CSc1nc(-c2ccccc2)cn1-c1ccccc1)NC(=O)Nc1ccccc1 [1Ai-2383]
- fluorescence ratio, eIF1A (eIF1A; 1Ai conc. 0.25 uM): 0.9677 and 0.9798
- fluorescence ratio, eIF1A (eIF1A; 1Ai conc. 0.5 uM): 0.9803 and 0.9815
- fluorescence ratio, eIF1A (eIF1A; 1Ai conc. 1 uM): 1.02 and 0.9558
- fluorescence ratio, eIF1A (eIF1A; 1Ai conc. 2 uM): 1.009 and 0.948
- fluorescence ratio, eIF1A (eIF1A; 1Ai conc. 4 uM): 0.993 and 0.9579
- fluorescence ratio, eIF1A (eIF1A; 1Ai conc. 8 uM): 0.9438 and 0.997
- fluorescence ratio, eIF1A (eIF1A; 1Ai conc. 16 uM): 1.039 and 1.06
- fluorescence ratio, eIF1A (eIF1A; 1Ai conc. 32 uM): 1.096 and 1.111
- fluorescence ratio, eIF1A (eIF1A; 1Ai conc. 64 uM): 1.232 and 1.231
- fluorescence ratio, eIF1A (eIF1A; 1Ai conc. 256 uM): 1.523 and 1.464
- WT eIF1A IC50 (eIF1A): No binding
- IC50 concentration (µM), WT eIF1A (eIF1A; [2]): No binding
- IC50 (eIF1A-RPS10 interaction): 23 µM
- GFP reporter ratio nsp1/gfp, avg (NSP1): 0.4187
- GFP reporter ratio nsp1/gfp, rep 1 (NSP1): 0.4187
- gfp signal, mean of duplicate wells (NSP1): 2499.5
- nsp1 signal, mean of duplicate wells (NSP1): 1046.5
- ratio (nsp1/gfp) (NSP1): 0.419

SMILES: COc1ccc(C=C2CSc3ccc(Cl)cc3C2=O)cc1O [1Ai-5175]
- fluorescence ratio, eIF1A (eIF1A; 1Ai conc. 0.25 uM): 0.9293 and 0.8251
- fluorescence ratio, eIF1A (eIF1A; 1Ai conc. 0.5 uM): 0.9438 and 0.8466
- fluorescence ratio, eIF1A (eIF1A; 1Ai conc. 1 uM): 0.9705 and 0.8212
- fluorescence ratio, eIF1A (eIF1A; 1Ai conc. 2 uM): 0.5643 and 0.7297
- fluorescence ratio, eIF1A (eIF1A; 1Ai conc. 4 uM): 0.4919 and 0.7019
- fluorescence ratio, eIF1A (eIF1A; 1Ai conc. 8 uM): 0.4802 and 0.6176
- fluorescence ratio, eIF1A (eIF1A; 1Ai conc. 16 uM): 0.3895 and 0.4949
- fluorescence ratio, eIF1A (eIF1A; 1Ai conc. 32 uM): 0.3105 and 0.4413
- fluorescence ratio, eIF1A (eIF1A; 1Ai conc. 64 uM): 0.2231 and 0.3132
- fluorescence ratio, eIF1A (eIF1A; 1Ai conc. 256 uM): 0.1792 and 0.2884
- pIC50 (eIF1A; eIF1A, from the titration data, read-out: IC50 (eIF1A titration block)): 5.22
- IC50 (eIF1A; summary table, fluorescence binding assay, read-out: IC50 concentration (µM), WT eIF1A): 6 µM
- binding to NTT-truncated eIF1A (eIF1A without NTT): no binding
- NTT truncation IC50 (eIF1A without NTT; eIF1A without NTT): No binding
- IC50 concentration (µM), NTT truncation (eIF1A without NTT; [2]): No binding
- IC50 (eIF1A-RPS10 interaction): 16 µM
- effect on uORF / leaky scanning reporters ([1]; 20uM (1Ai-5175 at 5uM), overnight): inhibit the short-distance reinitiation
- normalized to DMSO, 46 leaky, average ([1]; 46 leaky reporter, average of biological repeats): 0.842
- normalized to DMSO, 46 leaky, biological repeats ([1]; 46 leaky reporter, biological repeats 1-4): 0.696 and 0.690 and 0.975 and 1.007
- normalized to DMSO, 46 leaky ([1]; 46 leaky reporter, single replicates 1-8 (two dates)): 0.670 and 0.722 and 0.651 and 0.728 and 1.015 and 0.935 and 0.924 and 1.090
- normalized to DMSO, -46, average ([1]; -46 reporter, average of biological repeats): 0.583
- normalized to DMSO, -46, biological repeats ([1]; -46 reporter, biological repeats 1-4): 0.455 and 0.565 and 0.613 and 0.698
- normalized to DMSO, -46 ([1]; -46 reporter, single replicates 1-8 (two dates)): 0.448 and 0.461 and 0.490 and 0.641 and 0.602 and 0.625 and 0.452 and 0.944
- ff/rl, 46 leaky reporter ([1]; experiment 12.3.24): 2.64E-02 and 2.84E-02 and 2.56E-02 and 2.87E-02
- ff/rl, 46 reporter ([1]; experiment 12.3.24): 9.52E-02 and 9.80E-02 and 1.04E-01 and 1.36E-01
- ff/rl, normal reporter ([1]; experiment 12.3.24): 3.34E-01 and 1.68E-01 and 2.05E-01 and 1.98E-01
- ff/rl, 46 leaky reporter ([1]; experiment 13.03.24): 4.57E-03 and 4.21E-03 and 4.16E-03 and 4.91E-03
- ff/rl, 46 reporter ([1]; experiment 13.03.24): 1.39E-02 and 1.45E-02 and 1.05E-02 and 2.19E-02
- ff/rl, normal reporter ([1]; experiment 13.03.24): 4.32E-02 and 3.04E-02 and 3.07E-02 and 3.75E-02
- reporter activity norm to DMSO, minus46 ([1]; minus46 reporter, 95nt from uORF to main ORF experiment, Figure 4N source data, replicate experiments, DMSO = 1): 0.1896 and 0.185
- 95nt from uORF to main ORF experiment, minus46, average (DMSO = 1) ([1]; minus46 reporter, average): 0.497
- reporter activity norm to DMSO, minus 95 ([1]; minus 95 (nt) reporter, 95nt from uORF to main ORF experiment, Figure 4N source data, replicate experiments, DMSO = 1): 0.3264 and 0.388
- 95nt from uORF to main ORF experiment, minus 95nt, average (DMSO = 1) ([1]; minus 95nt reporter, average): 0.9478
- reporter activity norm to DMSO, ref ([1]; ref reporter, 95nt from uORF to main ORF experiment, Figure 4N source data, replicate experiments, DMSO = 1): 0.381 and 0.3727
- 95nt from uORF to main ORF experiment, ref, average (DMSO = 1) ([1]; ref reporter, average): 0.3768
- normalized to DMSO, refference, average ([1]; refference reporter, average of biological repeats): 0.842
- normalized to DMSO, refference, biological repeats ([1]; refference reporter, biological repeats 1-4): 0.886 and 0.712 and 0.917 and 0.851
- normalized to DMSO, refference ([1]; refference reporter, single replicates 1-8 (two dates)): 1.178 and 0.594 and 0.724 and 0.700 and 1.078 and 0.757 and 0.766 and 0.936
- normalized to DMSO, single replicates ([1]; reporter 46, experiment 12.3.24): 4.48E-01 and 4.61E-01 and 4.90E-01 and 6.41E-01
- normalize to DMSO, average ([1]; reporter 46, experiment 12.3.24, DMSO = 1): 0.51
- normalized to DMSO, single replicates ([1]; reporter 46, experiment 13.3.24): 6.02E-01 and 6.25E-01 and 4.52E-01 and 9.44E-01
- normalize to DMSO, average ([1]; reporter 46, experiment 13.3.24, DMSO = 1): 0.6556
- normalize to DMSO, average ([1]; reporter 46 leaky, experiment 12.3.24, DMSO = 1): 0.6928
- normalized to DMSO, single replicates ([1]; reporter 46 leaky, experiment 13.3.24): 1.01E+00 and 9.35E-01 and 9.24E-01 and 1.09E+00
- normalize to DMSO, average ([1]; reporter 46 leaky, experiment 13.3.24, DMSO = 1): 0.991
- normalized to DMSO, single replicates ([1]; reporter normal (refference), experiment 12.3.24): 1.18E+00 and 5.94E-01 and 7.24E-01 and 7.00E-01
- normalized to DMSO, single replicates ([1]; reporter normal (refference), experiment 13.3.24): 1.08E+00 and 7.57E-01 and 7.66E-01 and 9.36E-01
- normalize to DMSO, average ([1]; reporter refference, experiment 12.3.24, DMSO = 1): 0.7988
- normalize to DMSO, average ([1]; reporter refference, experiment 13.3.24, DMSO = 1): 0.8842
- inhibitory effect with extended (long) reinitiation distance ([1]; uORF to main ORF distance extended by 49 nt): lost

SMILES: Cn1c(=O)c2ccccc2n2c(CNC(c3ccc4c(c3)CCC4)c3cccs3)nnc12 (centres unmarked) [1Ai-7688]
- fluorescence ratio, eIF1A (eIF1A; 1Ai conc. 0.25 uM): 1.037 and 0.9455
- fluorescence ratio, eIF1A (eIF1A; 1Ai conc. 0.5 uM): 1.0637 and 0.9156
- fluorescence ratio, eIF1A (eIF1A; 1Ai conc. 1 uM): 1.06 and 0.9161
- fluorescence ratio, eIF1A (eIF1A; 1Ai conc. 2 uM): 1.104 and 0.9936
- fluorescence ratio, eIF1A (eIF1A; 1Ai conc. 4 uM): 1.1 and 0.9264
- fluorescence ratio, eIF1A (eIF1A; 1Ai conc. 8 uM): 1.007 and 0.92
- fluorescence ratio, eIF1A (eIF1A; 1Ai conc. 16 uM): 0.939 and 0.9024
- fluorescence ratio, eIF1A (eIF1A; 1Ai conc. 32 uM): 0.8822 and 0.9176
- fluorescence ratio, eIF1A (eIF1A; 1Ai conc. 64 uM): 0.9562 and 1.05
- fluorescence ratio, eIF1A (eIF1A; 1Ai conc. 256 uM): 1.305 and 1.351
- WT eIF1A IC50 (eIF1A): No binding
- IC50 concentration (µM), WT eIF1A (eIF1A; [2]): No binding
- IC50 (eIF1A-RPS10 interaction): 20 µM
- GFP reporter ratio nsp1/gfp, avg (NSP1): 0.4413
- GFP reporter ratio nsp1/gfp, rep 1 (NSP1): 0.4413
- gfp signal, mean of duplicate wells (NSP1): 1907
- nsp1 signal, mean of duplicate wells (NSP1): 841.5
- ratio (nsp1/gfp) (NSP1): 0.441
